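In this assay, cells in 96-well plates receive the compound at five concentrations for 48 hours. Endpoints are linearly interpolated between the surrounding concentrations. At the TGI there is no net growth.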
How the values were obtained:
Test in all cases: DTP human tumour cell line panel, 48 h
SNB-75 CNS = system: SNB-75 CNS
SR leukemia = system: SR leukemia
NCI-H522 lung = system: NCI-H522 lung
UO-31 renal = system: UO-31 renal
HCT-116 colon = system: HCT-116 colon
HOP-92 NSCLC = system: HOP-92 NSCLC
OVCAR-5 ovarian = system: OVCAR-5 ovarian
CAKI-1 renal = system: CAKI-1 renal
NCI/ADR-RES ovarian = system: NCI/ADR-RES ovarian
BT-549 breast = system: BT-549 breast
SF-295 CNS = system: SF-295 CNS
IGROV1 ovarian = system: IGROV1 ovarian
HS 578T breast = system: HS 578T breast
PC-3 prostate = system: PC-3 prostate
MALME-3M melanoma = system: MALME-3M melanoma
OVCAR-8 ovarian = system: OVCAR-8 ovarian
A549 NSCLC = system: A549 NSCLC
SK-OV-3 ovarian = system: SK-OV-3 ovarian
M14 melanoma = system: M14 melanoma
T-47D breast = system: T-47D breast
LOX IMVI melanoma = system: LOX IMVI melanoma
SW-620 colon = system: SW-620 colon
TK-10 renal = system: TK-10 renal
U251 CNS = system: U251 CNS
MCF7 breast = system: MCF7 breast
RPMI-8226 leukemia = system: RPMI-8226 leukemia
MDA-MB-231 breast = system: MDA-MB-231 breast
OVCAR-3 ovarian = system: OVCAR-3 ovarian
NCI-H23 lung = system: NCI-H23 lung
CCRF-CEM leukemia = system: CCRF-CEM leukemia
KM12 colon = system: KM12 colon
ACHN renal = system: ACHN renal
COLO 205 colon = system: COLO 205 colon
HCT-15 colon = system: HCT-15 colon
MDA-MB-435 = system: MDA-MB-435
NCI-H460 lung = system: NCI-H460 lung
K-562 leukemia = system: K-562 leukemia
786-0 renal = system: 786-0 renal
A498 renal = system: A498 renal
SNB-19 CNS = system: SNB-19 CNS
HOP-62 NSCLC = system: HOP-62 NSCLC
OVCAR-4 ovarian = system: OVCAR-4 ovarian
SK-MEL-2 melanoma = system: SK-MEL-2 melanoma
HT29 colon = system: HT29 colon
UACC-257 melanoma = system: UACC-257 melanoma
RXF 393 renal = system: RXF 393 renal
SK-MEL-5 melanoma = system: SK-MEL-5 melanoma
UACC-62 melanoma = system: UACC-62 melanoma
SF-268 CNS = system: SF-268 CNS
NCI-H226 lung = system: NCI-H226 lung
MOLT-4 leukemia = system: MOLT-4 leukemia
EKVX NSCLC = system: EKVX NSCLC
SF-539 CNS = system: SF-539 CNS

Measured: TGI

O=C1CCCn2c(nc3ccccc32)N1
> 100 µM: all assays above

Source: PubChem BioAssay (NCI)
